Reference: PMC7468908 (Nutrients, 2020)
Where two headings read alike, the source gives them in different places.

Columns and labels:
CYP3A4 = molecular target: T1, CYP3A4 (Homo sapiens, UniProt P08684); experiment: CYP3A4-catalyzed testosterone hydroxylation (CypExpress kit, HPLC); assay type: biochemical; settings: for concentration inducing statistically significant (p < 0.01) decrease in metabolite formation, CYP3A4: substrate 5 µM testosterone
T1 construct: purchased Sigma-Aldrich
Experimental: Inhibition of CYP2C19 [47], 3A4 [48], and 2D6 [49] by Q and its conjugates was tested based on our previously reported methods, without modifications.
S-mephenytoin and 4-hydroxymephenytoin (CYP2C19 assay), testosterone and 6β-hydroxytestosterone (CYP3A4 assay), as well as dextromethorphan and dextrorphan (CYP2D6 assay) were quantified using the previously described methods, with minor modifications.
In the CYP3A4 assay, samples were driven through a guard column (Security Guard™ Catridge C18 4.0 × 3.0 mm; Phenomenex, Torrance, CA, USA) linked to an analytical column (Kinetex C18 150 × 4.6 mm; 5 µm; Phenomenex, Torrance, CA, USA), with a 1.2 mL/min flow rate, at room temperature. The mobile phase contained methanol (VWR, Budapest, Hungary), water, and acetic acid (53:46:1 v/v%). After the isocratic elution, testosterone and 6β-hydroxytestosterone were detected at 240 nm.

OATP2B1 = molecular target: T2, OATP2B1 (Homo sapiens, UniProt O94956); experiment: OATP2B1-mediated pyranine uptake in A431 cells overexpressing OATP2B1; assay type: cell-based; settings: 15 min; for IC50: A431-OATP2B1 cells
T2 construct: host or cells: A431
T2 sequence (O94956 1-709): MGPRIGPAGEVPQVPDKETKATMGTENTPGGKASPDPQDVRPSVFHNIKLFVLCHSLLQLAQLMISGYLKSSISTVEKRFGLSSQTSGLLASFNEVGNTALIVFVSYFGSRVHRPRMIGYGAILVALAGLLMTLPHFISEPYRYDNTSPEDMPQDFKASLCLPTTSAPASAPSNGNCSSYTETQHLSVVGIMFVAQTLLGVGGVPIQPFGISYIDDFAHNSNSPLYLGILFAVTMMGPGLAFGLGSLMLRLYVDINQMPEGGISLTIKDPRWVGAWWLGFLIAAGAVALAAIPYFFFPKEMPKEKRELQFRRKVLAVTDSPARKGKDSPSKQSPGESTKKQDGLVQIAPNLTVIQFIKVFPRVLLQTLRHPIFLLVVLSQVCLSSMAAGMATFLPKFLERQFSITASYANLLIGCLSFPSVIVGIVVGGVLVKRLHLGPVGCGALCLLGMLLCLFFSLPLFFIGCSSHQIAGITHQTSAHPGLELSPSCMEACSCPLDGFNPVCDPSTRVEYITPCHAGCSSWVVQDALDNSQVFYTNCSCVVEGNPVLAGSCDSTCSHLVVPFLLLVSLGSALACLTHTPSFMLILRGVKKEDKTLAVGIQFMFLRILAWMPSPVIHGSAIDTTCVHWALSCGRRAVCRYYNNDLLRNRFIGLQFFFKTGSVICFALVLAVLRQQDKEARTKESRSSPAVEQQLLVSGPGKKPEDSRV
Experimental: A431 cells overexpressing human OATPs, 1A2 (BC042452, HsCD00333163), 1B1 (Gene ID: AB026257), 1B3 (BC141525, HsCD00348132) or 2B1 (BC041095.1, HsCD00378878), or their mock transfected controls, were generated as previously described. Cells were cultured in Dulbecco’s Modified Eagle Medium (DMEM; Thermo Fischer Scientific, Waltham, MA, USA) supplemented with 10% fetal bovine serum, 2 mM L-glutamine, 100 units/mL penicillin and 100 µg/mL streptomycin, at 37 °C with 5% CO2.
The interaction between flavonoids and OATPs was investigated in an indirect assay employing the fluorescent dye substrates, pyranine and sulforhodamine 101 [51, 52]. Briefly, A431 cell overexpressing OATPs, 1A2, 1B1, 1B3 or 2B1, or their mock transfected controls, were seeded on 96-well plates in a density of 8x10^4 cells/well in 200 μL DMEM one day prior to the transport measurements. […] The reaction was started by the addition of 50 μL uptake buffer containing pyranine in a final concentration of 10 μM (OATP1B1) or 20 μM (OATP1B3 and OATP2B1), or 0.5 μM sulforhodamine 101 (OATP1A2). Thereafter, cells were incubated at 37°C for 15 min (OATP1B1 and OATP2B1), 10 min (OATP1A2), or 30 min (OATP1B3). The reactions were stopped by removing the supernatants, then the cells were washed three times with ice-cold PBS. Fluorescence (in 200 μL PBS/well) was determined employing an Enspire plate reader (Perkin Elmer, Waltham, MA) ex/em: 403/517 nm (pyranine) or 586/605 nm (sulforhodamine 101). OATP-dependent transport was calculated by extracting fluorescence measured in mock transfected cells. Transport activity was calculated based on the fluorescence signal in the absence (100%) of flavonoids. Experiments were repeated at least in three biological replicates. IC50 values were calculated by Hill1 fit, using the Origin Pro8.6 software ([…]).

MRP2 = molecular target: T3, MRP2 (Homo sapiens, UniProt Q92887); experiment: MRP2 vesicular transport of CDCF in Sf9 membrane vesicles; assay type: biochemical
T3 construct: made in house; host or cells: Sf9 insect cells (baculovirus)
T3 sequence (Q92887 whole entry): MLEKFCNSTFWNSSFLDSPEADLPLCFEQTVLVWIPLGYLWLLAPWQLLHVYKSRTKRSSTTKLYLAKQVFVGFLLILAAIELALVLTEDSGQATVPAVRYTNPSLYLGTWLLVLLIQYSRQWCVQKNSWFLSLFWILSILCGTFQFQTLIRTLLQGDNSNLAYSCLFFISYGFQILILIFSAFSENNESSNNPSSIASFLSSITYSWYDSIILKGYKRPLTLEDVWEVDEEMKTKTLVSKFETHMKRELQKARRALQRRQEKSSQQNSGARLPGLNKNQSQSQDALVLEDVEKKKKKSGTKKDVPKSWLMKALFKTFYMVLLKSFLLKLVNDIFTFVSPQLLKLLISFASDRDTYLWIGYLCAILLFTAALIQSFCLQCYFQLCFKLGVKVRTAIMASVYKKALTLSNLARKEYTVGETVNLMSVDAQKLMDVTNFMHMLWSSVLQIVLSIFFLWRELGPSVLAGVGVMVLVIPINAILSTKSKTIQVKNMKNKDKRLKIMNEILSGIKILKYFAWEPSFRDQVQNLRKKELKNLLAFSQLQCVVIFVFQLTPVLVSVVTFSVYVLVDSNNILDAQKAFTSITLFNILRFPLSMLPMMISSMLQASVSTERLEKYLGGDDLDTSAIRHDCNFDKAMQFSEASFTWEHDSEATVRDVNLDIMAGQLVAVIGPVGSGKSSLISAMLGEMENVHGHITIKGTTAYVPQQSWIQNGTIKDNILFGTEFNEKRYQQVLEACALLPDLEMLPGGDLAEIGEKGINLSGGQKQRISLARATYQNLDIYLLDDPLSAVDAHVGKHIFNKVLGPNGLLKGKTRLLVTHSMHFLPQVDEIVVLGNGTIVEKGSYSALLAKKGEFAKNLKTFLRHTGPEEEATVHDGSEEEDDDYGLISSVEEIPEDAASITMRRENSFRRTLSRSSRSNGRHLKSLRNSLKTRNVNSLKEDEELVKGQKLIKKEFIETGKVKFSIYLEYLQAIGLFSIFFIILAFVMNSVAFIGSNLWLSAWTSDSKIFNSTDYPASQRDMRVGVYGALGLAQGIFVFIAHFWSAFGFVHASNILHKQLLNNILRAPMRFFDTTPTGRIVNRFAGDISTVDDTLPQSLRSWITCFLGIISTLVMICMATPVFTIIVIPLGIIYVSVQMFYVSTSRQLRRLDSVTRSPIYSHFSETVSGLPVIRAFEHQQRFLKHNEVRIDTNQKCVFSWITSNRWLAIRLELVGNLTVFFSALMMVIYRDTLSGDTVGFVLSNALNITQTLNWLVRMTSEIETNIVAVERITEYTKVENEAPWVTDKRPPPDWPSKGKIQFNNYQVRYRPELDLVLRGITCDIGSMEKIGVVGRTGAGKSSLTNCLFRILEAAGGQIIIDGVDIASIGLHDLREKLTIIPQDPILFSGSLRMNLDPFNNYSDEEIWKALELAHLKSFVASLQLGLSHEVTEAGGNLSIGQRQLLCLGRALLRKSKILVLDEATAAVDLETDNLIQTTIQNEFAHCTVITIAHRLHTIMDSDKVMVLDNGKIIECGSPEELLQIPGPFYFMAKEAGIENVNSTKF
Experimental: Experiments were performed in insect membrane vesicles, as describe previously. Human BCRP and MRP2 were expressed in Sf9 insect cells by baculoviruses. At the third day of infection, cells were collected and membrane vesicles were obtained by mechanical disruption and differential centrifugation. To get full activity for BCRP, the cholesterol levels of the vesicles were adjusted to the level of mammalian membranes. Vesicles were stored at -80°C, total protein content of preparations was measured by the Lowry method (used as a reference of the quantity). Membrane vesicles (50 μg protein/sample) were incubated at 37 °C for 10 min (without or with 4 mM of Mg-ATP) in 50 μL volume, in the presence of transporter specific fluorescent substrates (10 μM lucifer yellow (LY) for BCRP and 5 μM 5(6)-Carboxy-2′,7′-dichlorofluorescein (CDCF) for MRP2). Quality of membrane vesicles was confirmed applying known reference inhibitors (benzbromarone and Ko143). ATP dependent uptake of fluorescent substrates was examined in the presence of flavonoids (up to 50–200 μM). Each compound was dissolved in DMSO and solvent controls were applied in all experiments. […] After incubation, samples were rapidly filtered and washed on filter plate (MSFBN6B10, Millipore, Burlington, MA, USA). Accumulated substrates in vesicles were solved back from the filter by 100 μL of 10% sodium dodecyl sulfate and centrifuged into another plate. A 100-μL volume of fluorescence stabilizer was added to the samples (DMSO for LY, and 0.1 M NaOH for CDCF). Fluorescence of samples was measured by a plate reader (Victor X3 Perkin-Elmer, Waltham, MA, USA) at appropriate wavelengths (filters were λex = 405 nm and λem = 535 nm for LY as well as λex = 492 nm and λem = 635 nm for CDCF). ABC related transport was calculated by subtracting passive uptake measured without Mg-ATP (with Mg-AMP the same background was detected) from values measured in the presence of Mg-ATP.

[1] = testosterone hydroxylation, substrate 5 µM, read-out: IC50 for CYP3A4
[2] = 20 μM pyranine, read-out: IC50 for OATP2B1
[3] = vesicular uptake of 5 μM CDCF, read-out: IC50 for MRP2

T1 sequence (P08684 whole entry): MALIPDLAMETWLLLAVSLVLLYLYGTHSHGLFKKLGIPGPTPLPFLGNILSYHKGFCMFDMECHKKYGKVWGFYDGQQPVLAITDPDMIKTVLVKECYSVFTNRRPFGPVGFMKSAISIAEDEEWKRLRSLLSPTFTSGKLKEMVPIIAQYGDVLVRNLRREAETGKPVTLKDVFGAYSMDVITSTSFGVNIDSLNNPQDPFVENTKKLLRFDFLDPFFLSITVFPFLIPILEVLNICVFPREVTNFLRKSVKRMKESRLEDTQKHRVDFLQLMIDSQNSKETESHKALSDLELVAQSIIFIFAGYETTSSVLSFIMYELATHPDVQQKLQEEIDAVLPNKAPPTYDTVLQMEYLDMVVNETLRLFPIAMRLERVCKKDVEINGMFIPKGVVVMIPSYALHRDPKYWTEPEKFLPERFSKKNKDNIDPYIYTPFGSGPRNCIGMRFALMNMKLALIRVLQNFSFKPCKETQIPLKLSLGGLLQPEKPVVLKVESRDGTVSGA

SMILES	concentration inducing statistically significant (p < 0.01) decrease in metabolite formation, CYP3A4 (CYP3A4) [µM]	IC50 (CYP3A4; [1]) [µM]	concentration causing statistically significant (p < 0.01) inhibition, OATP2B1 (OATP2B1; 20 μM pyranine) [µM]	IC50 (OATP2B1; [2]) [µM]	IC50 (MRP2; [3]) [µM]	IC50 (CYP3A4) [µM]	IC50 (OATP2B1; IC50 for OATP2B1, 20 μM pyranine) [µM]	IC50 (MRP2) [µM]
COc1cc(-c2oc3cc(O)cc(O)c3c(=O)c2OC2OC(C(=O)O)C(O)C(O)C2O)ccc1O (stereo not drawn) [I3G, isorhamnetin-3-glucuronide]	10	> 30	1.6	4.14	14.9			
COc1cc(-c2oc3cc(O)cc(O)c3c(=O)c2O)ccc1O [IR, isorhamnetin]	10		0.6			> 30	0.82	> 30
O=C(O)C1OC(Oc2c(-c3ccc(O)c(O)c3)oc3cc(O)cc(O)c3c2=O)C(O)C(O)C1O (stereo not drawn) [Q3G, quercetin-3-glucuronide]	20	> 30	3.1	4.85	24.2			
O=c1c(O)c(-c2ccc(O)c(OS(=O)(=O)O)c2)oc2cc(O)cc(O)c12 [Q3′S, quercetin-3′-sulfate]	10	> 30	0.3	0.43	19.6			
O=c1c(O)c(-c2ccc(O)c(O)c2)oc2cc(O)cc(O)c12 [Q, quercetin]	5		0.3	0.34	> 30			
